According to patent publication US7138361B2, “Herbicidal heterocycles” (E. I. du Pont de Nemours and Company, priority 2000, dated 2006):

What was measured:
Type in all cases: in vivo
[1] = system: barnyardgrass (Echinochloa crus-galli); assay: Test B preemergence
In short: (§1)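 Visual injury scores, 0 = no effect to 100 = complete control, assigned against controls after 13 to 15 days in the greenhouse. Compounds formulated in non-phytotoxic solvent plus surfactant and applied to soil after planting (pre) or onto foliage of 1- to 4-leaf plants (post).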

[2] = system: Surinam grass (Brachiaria decumbens); assay: Test B preemergence
In short: as §1

[3] = system: lambsquarters (Chenopodium album); assay: Test B preemergence
In short: as §1

[4] = system: morning glory (Ipomoea hederacea); assay: Test B preemergence
In short: as §1

corn (Zea mays) [5] = assay: Test B preemergence
In short: as §1

[6] = system: crabgrass (Digitaria sanguinalis); assay: Test B preemergence
In short: as §1

[7] = system: giant foxtail (Setaria faberii); assay: Test B preemergence
In short: as §1

[8] = system: cocklebur (Xanthium strumarium); assay: Test B preemergence
In short: as §1

[9] = system: velvetleaf (Abutilon theophrasti); assay: Test B preemergence
In short: as §1

rice (Oryza saliva) = assay: Test B preemergence
In short: as §1

[10] = system: pigweed (Amaranthus retroflexus); assay: Test B preemergence
In short: as §1

Nightshade = assay: Test C preemergence; conditions: Rate 500 g/ha, visual evaluation after 12 to 14 days
Sunflower = assay: Test C preemergence; conditions: Rate 500 g/ha, visual evaluation after 12 to 14 days
[11] = system: smallflower flatsedge (Cyperus difformis); assay: Test C flooded paddy test; conditions: for Flatsedge plant response rating: Flooded Paddy, scale 0 to 100, 0 no effect, 100 complete control; for Plant response rating, Flatsedge: flooded paddy test, scale 0 to 100 (0 no effect, 100 complete control)
In short: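 Plants were grown to the 2-leaf stage under flooded paddy conditions and treated. They were then kept in a greenhouse for 12 to 14 days and visually rated against untreated controls on a 0–100 scale, where 0 is no effect and 100 is complete control.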

[12] = system: barnyardgrass (Echinochloa crus-galli); assay: Test B postemergence; conditions: 13 to 15 days
In short: as §1

[13] = system: Surinam grass (Brachiaria decumbens); assay: Test B postemergence; conditions: 13 to 15 days
In short: as §1

[14] = system: lambsquarters (Chenopodium album); assay: Test B postemergence; conditions: 13 to 15 days
In short: as §1

[15] = system: blackgrass (Alopecurus myosuroides); assay: Test B postemergence; conditions: 13 to 15 days
In short: as §1

[16] = system: morning glory (Ipomoea hederacea); assay: Test B postemergence; conditions: 13 to 15 days
In short: as §1

corn (Zea mays) [17] = assay: Test B postemergence; conditions: 13 to 15 days
In short: as §1

wild oat (Avena fatua) = assay: Test B postemergence; conditions: 13 to 15 days
In short: as §1

[18] = system: crabgrass (Digitaria sanguinalis); assay: Test B postemergence; conditions: 13 to 15 days
In short: as §1

[19] = system: giant foxtail (Setaria faberii); assay: Test B postemergence; conditions: 13 to 15 days
In short: as §1

[20] = system: cocklebur (Xanthium strumarium); assay: Test B postemergence; conditions: 13 to 15 days
In short: as §1

[21] = system: wheat (Triticum aestivum); assay: Test B postemergence; conditions: 13 to 15 days
In short: as §1

[22] = system: velvetleaf (Abutilon theophrasti); assay: Test B postemergence; conditions: 13 to 15 days
In short: as §1

[23] = system: pigweed (Amaranthus retroflexus); assay: Test B postemergence; conditions: 13 to 15 days
In short: as §1

[24] = Preemergence, Rate 500 g/ha, scale 0 to 100, 0 no effect, 100 complete control
[25] = preemergence, Rate 125 g/ha, scale of 0 to 100 where 0 is no effect and 100 is complete control, 13 to 15 days
[26] = Rate 125 g/ha, scale 0 (no effect) to 100 (complete control)
[27] = Rate 500 g/ha, scale 0 to 100, 0 is no effect, 100 is complete control

CC(C)Oc1cccc(N2CCC(n3ccc(C(C)C)n3)C2=O)c1 (centres unmarked) [Compound 82]
Plant response rating, Barnyardgrass [1, 24]: 100
Plant response rating, Barnyardgrass [1, 25]: 100
Plant response rating, Surinam grass [2, 24]: 100
Plant response rating, Surinam grass [2, 25]: 90
Plant response rating, Lambsquarters [3, 24]: 100
Plant response rating, Lambsquarters [3, 25]: 100
Plant response rating, Morningglory [4, 24]: 0
Plant response rating, Morningglory [4, 25]: 0
Plant response rating, Corn (corn (Zea mays) [5]; [24]): 20
Plant response rating, Corn (corn (Zea mays) [5]; [25]): 0
Plant response rating, Crabgrass [6, 24]: 100
Plant response rating, Crabgrass [6, 25]: 100
Plant response rating, Foxtail, Giant [7, 24]: 100
Plant response rating, Foxtail, Giant [7, 25]: 100
Plant response rating, Cocklebur [8, 24]: 0
Plant response rating, Cocklebur [8, 25]: 0
Plant response rating, Velvetleaf [9, 24]: 0
Plant response rating, Velvetleaf [9, 25]: 0
Plant response rating, Rice (rice (Oryza saliva); [24]): 100
Plant response rating, Rice (rice (Oryza saliva); [25]): 70
Plant response rating, Pigweed [10, 24]: 100
Plant response rating, Pigweed [10, 25]: 100
Plant response rating (0 to 100), Nightshade (Nightshade): 100
Plant response rating (0 to 100), Sunflower (Sunflower): 80
Flatsedge plant response rating ([11]; Rate 250 g/ha): 90
Flatsedge plant response rating ([11]; Rate 500 g/ha): 100
Plant response rating, Flatsedge ([11]; Rate 62 g/ha): 90
Plant response rating, Flatsedge ([11]; Rate 125 g/ha): 90
Plant response rating, Barnyardgrass [12, 26]: 0
Plant response rating, Barnyardgrass [12, 27]: 0
Plant response rating, Surinam grass [13, 26]: 0
Plant response rating, Surinam grass [13, 27]: 0
Plant response rating, Lambsquarters [14, 26]: 20
Plant response rating, Lambsquarters [14, 27]: 70
Plant response rating, Blackgrass [15, 26]: 0
Plant response rating, Blackgrass [15, 27]: 0
Plant response rating, Morningglory [16, 26]: 0
Plant response rating, Morningglory [16, 27]: 10
Plant response rating, Corn (corn (Zea mays) [17]; [26]): 0
Plant response rating, Corn (corn (Zea mays) [17]; [27]): 0
Plant response rating, Wild Oat (wild oat (Avena fatua); [26]): 0
Plant response rating, Wild Oat (wild oat (Avena fatua); [27]): 0
Plant response rating, Crabgrass [18, 26]: 0
Plant response rating, Crabgrass [18, 27]: 10
Plant response rating, Foxtail, Giant [19, 26]: 0
Plant response rating, Foxtail, Giant [19, 27]: 0
Plant response rating, Cocklebur [20, 26]: 0
Plant response rating, Cocklebur [20, 27]: 20
Plant response rating, Wheat [21, 26]: 0
Plant response rating, Wheat [21, 27]: 0
Plant response rating, Velvetleaf [22, 26]: 0
Plant response rating, Velvetleaf [22, 27]: 0
Plant response rating, Pigweed [23, 26]: 0
Plant response rating, Pigweed [23, 27]: 10

CCC(C)c1ccn(C2CCN(c3cccc(OC(C)C)c3)C2=O)n1 (centres unmarked) [Compound 83]
Plant response rating, Barnyardgrass [1, 24]: 100
Plant response rating, Barnyardgrass [1, 25]: 100
Plant response rating, Surinam grass [2, 24]: 90
Plant response rating, Surinam grass [2, 25]: 70
Plant response rating, Lambsquarters [3, 24]: 100
Plant response rating, Lambsquarters [3, 25]: 100
Plant response rating, Morningglory [4, 25]: 0
Plant response rating, Corn (corn (Zea mays) [5]; [24]): 20
Plant response rating, Corn (corn (Zea mays) [5]; [25]): 20
Plant response rating, Crabgrass [6, 24]: 100
Plant response rating, Crabgrass [6, 25]: 100
Plant response rating, Foxtail, Giant [7, 24]: 100
Plant response rating, Foxtail, Giant [7, 25]: 100
Plant response rating, Cocklebur [8, 24]: 0
Plant response rating, Cocklebur [8, 25]: 0
Plant response rating, Velvetleaf [9, 24]: 0
Plant response rating, Velvetleaf [9, 25]: 0
Plant response rating, Rice (rice (Oryza saliva); [24]): 100
Plant response rating, Rice (rice (Oryza saliva); [25]): 20
Plant response rating, Pigweed [10, 24]: 100
Plant response rating, Pigweed [10, 25]: 100
Plant response rating (0 to 100), Nightshade (Nightshade): 100
Plant response rating (0 to 100), Sunflower (Sunflower): 70
Flatsedge plant response rating ([11]; Rate 250 g/ha): 100
Flatsedge plant response rating ([11]; Rate 500 g/ha): 100
Plant response rating, Flatsedge ([11]; Rate 62 g/ha): 90
Plant response rating, Flatsedge ([11]; Rate 125 g/ha): 100
Plant response rating, Barnyardgrass [12, 26]: 0
Plant response rating, Barnyardgrass [12, 27]: 0
Plant response rating, Surinam grass [13, 26]: 0
Plant response rating, Surinam grass [13, 27]: 0
Plant response rating, Lambsquarters [14, 26]: 10
Plant response rating, Lambsquarters [14, 27]: 60
Plant response rating, Blackgrass [15, 26]: 0
Plant response rating, Blackgrass [15, 27]: 0
Plant response rating, Morningglory [16, 26]: 0
Plant response rating, Morningglory [16, 27]: 10
Plant response rating, Corn (corn (Zea mays) [17]; [26]): 0
Plant response rating, Corn (corn (Zea mays) [17]; [27]): 0
Plant response rating, Wild Oat (wild oat (Avena fatua); [26]): 0
Plant response rating, Wild Oat (wild oat (Avena fatua); [27]): 0
Plant response rating, Crabgrass [18, 26]: 0
Plant response rating, Crabgrass [18, 27]: 0
Plant response rating, Foxtail, Giant [19, 26]: 0
Plant response rating, Foxtail, Giant [19, 27]: 0
Plant response rating, Cocklebur [20, 26]: 10
Plant response rating, Cocklebur [20, 27]: 10
Plant response rating, Wheat [21, 26]: 0
Plant response rating, Wheat [21, 27]: 0
Plant response rating, Velvetleaf [22, 26]: 0
Plant response rating, Velvetleaf [22, 27]: 0
Plant response rating, Pigweed [23, 26]: 0
Plant response rating, Pigweed [23, 27]: 10
